Data on nine compounds can be found in ChEMBL document CHEMBL1201862, “PubChem BioAssay data set” (2004).

Test systems include HOP-62; SK-OV-3; T47D; A498; A549; NCI-H23; HOP-92; HCT-15; K562; KM12; COLO 205; RPMI-8226; SK-MEL-28; IGROV-1; TK-10; OVCAR-4; MCF7; M14; NCI-H522.
Common to all, as to test: DTP human tumour cell line panel, 48 h

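Where inhibition never reached the appropriate level, the endpoint shown equals the highest concentration tested. Otherwise, values were interpolated linearly from a five-concentration, 48-hour dose response in 96-well plates. The concentration for 50% growth inhibition is given as GI50.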 Active and inactive are the calls of the source. Cut-off read from the data, not from the text of the source: active = GI50 up to about 1.1 µM and inactive = higher.

Turning to `C=C1C(=O)OC2C1CCC(C)C1(O)C=CC(=O)C21C` (stereo not drawn), the GI50 was > 10 µM (inactive) in the experiment on HOP-62; > 10 µM (inactive) in the experiment on SK-OV-3; 6.31 µM (inactive) in the experiment on T47D; 5.46 µM (inactive) in the experiment with A498; > 10 µM (inactive) with A549; 7.69 µM (inactive) in the experiment with NCI-H23. Besides, the GI50 in the experiment with HOP-92 was 3.33 µM (inactive); in the experiment on HCT-15 it was 4.5 µM; in the experiment with K562, 4.45 µM (inactive); with KM12, > 10 µM (inactive); in the experiment on COLO 205, > 10 µM (inactive); in the experiment on RPMI-8226, 5.43 µM (inactive). Moreover, the GI50 with SK-MEL-28 is 5.92 µM (inactive); in the experiment with IGROV-1, > 10 µM (inactive); in the experiment with TK-10, 6.75 µM (inactive); in the experiment on OVCAR-4, 7.6 µM (inactive); with MCF7 it was > 10 µM (inactive).
For the compound `C=CCNC(=O)ON1C(=O)CCC1=O`, the GI50 with HOP-62, in the experiment with SK-OV-3, in the experiment on A498, with A549, with NCI-H23 and in the experiment with HOP-92 was > 100 µM (inactive) throughout. Also, the GI50 is > 100 µM (inactive) in the experiment with M14; more than 100 µM in the experiment with HCT-15; > 100 µM (inactive) with K562; 31.8 µM (inactive) in the experiment on NCI-H522; > 100 µM (inactive) in the experiment with KM12; > 100 µM (inactive) in the experiment on COLO 205. Also, the GI50 in the experiment with RPMI-8226, with SK-MEL-28, with IGROV-1, with TK-10 and in the experiment with OVCAR-4 was > 100 µM (inactive) in each case.
`COc1ccc(C(=O)O/N=C2/CCC/C2=C\c2ccccc2)cc1`: the GI50 in the experiment on HOP-62, in the experiment with SK-OV-3, in the experiment with A498, with A549, in the experiment with NCI-H23 and with HOP-92 was > 100 µM (inactive) in each case. Further, the GI50 with M14 was > 100 µM (inactive); in the experiment with HCT-15 it was more than 100 µM; in the experiment on K562, > 100 µM (inactive); in the experiment on NCI-H522, 97.3 µM (inactive); with KM12, > 100 µM (inactive); in the experiment with COLO 205, > 100 µM (inactive). The GI50 with RPMI-8226 was > 100 µM (inactive); in the experiment on SK-MEL-28, > 100 µM (inactive); in the experiment on IGROV-1, > 73.6 µM (inactive); in the experiment with TK-10, > 91.6 µM (inactive); with OVCAR-4, > 66.1 µM (inactive).
For the compound `CCOC(=O)/C(=C\c1ccc(O)c(OC)c1)C(=O)c1ccccc1`, the GI50 is > 10 µM (inactive) in the experiment with HOP-62; > 42.8 µM (inactive) in the experiment with SK-OV-3; 17 µM (inactive) with A498; 18.2 µM (inactive) in the experiment on A549; 8.22 µM (inactive) in the experiment with NCI-H23; 21.3 µM (inactive) in the experiment on HOP-92. In addition, the GI50 in the experiment with M14 is 19.1 µM (inactive); in the experiment with HCT-15, 8.75 µM; in the experiment on K562, 9.59 µM (inactive); in the experiment with NCI-H522, 7.5 µM (inactive); with KM12, 11.6 µM (inactive); in the experiment on COLO 205 it was 36.1 µM (inactive). In addition, the GI50 in the experiment with RPMI-8226 was 9.77 µM (inactive); in the experiment with SK-MEL-28, 9.75 µM (inactive); in the experiment with IGROV-1 it was 19.2 µM (inactive); in the experiment on TK-10 it was 25.9 µM (inactive); with OVCAR-4 it was 13.9 µM (inactive).
For `CCOC(=O)C(=O)/C(=C/n1c(=S)[nH]c2ccc([N+](=O)[O-])cc21)C(=O)OCC`, the GI50 in the experiment on HOP-62, in the experiment on SK-OV-3, with T47D, in the experiment with A498, with A549 and in the experiment with NCI-H23 was > 100 µM (inactive) throughout. Further, the GI50 with HOP-92, in the experiment on M14, with K562, in the experiment with KM12, with COLO 205 and in the experiment on RPMI-8226 was > 100 µM (inactive) each time. Further, the GI50 with SK-MEL-28, with TK-10, with OVCAR-4 and in the experiment on MCF7 was > 100 µM (inactive) each time.
In the case of `CC(C)c1cccc(C(C)C)c1N1C(=O)C(=O)C(c2nc3ccccc3o2)C(=O)C1=O`, the GI50 with HOP-62 was > 100 µM (inactive); in the experiment on SK-OV-3, > 100 µM (inactive); in the experiment with A498, > 100 µM (inactive); in the experiment with A549, > 100 µM (inactive); in the experiment with NCI-H23 it was 29.6 µM (inactive); in the experiment with HOP-92 it was 33.3 µM (inactive). For the same compound, the GI50 was 55.8 µM (inactive) in the experiment on M14; 49.7 µM with HCT-15; 28.2 µM (inactive) with K562; 19.5 µM (inactive) in the experiment with NCI-H522; > 100 µM (inactive) in the experiment with KM12; 32.8 µM (inactive) in the experiment on COLO 205. The GI50 was 35.4 µM (inactive) in the experiment with RPMI-8226; 32.7 µM (inactive) in the experiment on SK-MEL-28; > 100 µM (inactive) with IGROV-1; > 100 µM (inactive) in the experiment on TK-10; 78.2 µM (inactive) in the experiment with OVCAR-4.
For `CCSc1nc(-c2ccc(OC)cc2)c(C#N)c(=O)n1C1OCC(OC(C)=O)C(OC(C)=O)C1OC(C)=O` (stereo not drawn), the GI50 with HOP-62 was > 100 µM (inactive); in the experiment with SK-OV-3 it was > 100 µM (inactive); in the experiment on A498, > 100 µM (inactive); with A549 it was > 100 µM (inactive); with NCI-H23, 94.6 µM (inactive); in the experiment with HOP-92 it was > 100 µM (inactive). The GI50 is > 100 µM (inactive) in the experiment on M14; more than 100 µM with HCT-15; > 100 µM (inactive) with K562; 92 µM (inactive) in the experiment with NCI-H522; > 100 µM (inactive) with KM12; > 100 µM (inactive) with COLO 205. Besides, the GI50 in the experiment with RPMI-8226 is 78.5 µM (inactive); in the experiment with SK-MEL-28, > 100 µM (inactive); with IGROV-1, 77.8 µM (inactive); in the experiment with TK-10, > 100 µM (inactive); with OVCAR-4, > 100 µM (inactive).
With `O=C(CCCN1CCc2[nH]c3cc(F)ccc3c2C1)c1ccc(F)cc1`, the GI50 in the experiment with HOP-62 is 16.1 µM (inactive); in the experiment on T47D, 18.9 µM (inactive); in the experiment on A498, 11.8 µM (inactive); in the experiment with A549, 15.8 µM (inactive); in the experiment with NCI-H23, 14.1 µM (inactive); in the experiment on HOP-92 it was 2.26 µM (inactive). For the same compound, the GI50 in the experiment on M14 was 9.82 µM (inactive); in the experiment on HCT-15, 16.8 µM; in the experiment on K562 it was 5.71 µM (inactive); in the experiment with NCI-H522, 20.7 µM (inactive); in the experiment on KM12, 13.9 µM (inactive); in the experiment on COLO 205 it was 4.84 µM (inactive). The GI50 in the experiment on RPMI-8226 is 10 µM (inactive); in the experiment with SK-MEL-28, 20.3 µM (inactive); in the experiment with IGROV-1, 16.4 µM (inactive); with TK-10, 12.4 µM (inactive); in the experiment on OVCAR-4 it was 13.8 µM (inactive); with MCF7, 4.59 µM (inactive).
Turning to `Nc1ccc(C(=O)NN2C(=O)C(Cl)C2c2ccccc2)cc1` (stereo not drawn), the GI50 in the experiment with HOP-62, in the experiment on SK-OV-3, in the experiment with A498, with A549, in the experiment on NCI-H23 and in the experiment on HOP-92 was > 100 µM (inactive) throughout. The GI50 in the experiment with M14 was > 100 µM (inactive); with HCT-15, more than 100 µM; with K562 it was > 100 µM (inactive); with NCI-H522 it was > 100 µM (inactive); in the experiment on KM12 it was > 100 µM (inactive); in the experiment on COLO 205 it was > 100 µM (inactive). The GI50 in the experiment with RPMI-8226, with SK-MEL-28, with IGROV-1, with TK-10 and with OVCAR-4 was > 100 µM (inactive) each time.

What is called GI50 is the concentration at which growth is held to half of that of the control.
